Key:
[1] = parameters: method as in PMID 21498533; conditions: cited from earlier work
[2] = Micro-PET/CT brain imaging in ICR mice with thiamine deficiency (TD) and control mice; assay type: in vivo; conditions: control mice (C57BL/6 and ICR, Fig. 3a, c)
Source text: Eight-week-old male C57BL/6 and ICR mice were randomly divided into two groups: TD mouse models (n = 2 for C57BL/6, one died due to anesthesia during micro-PET/CT scanning; n = 3 for ICR) were established by feeding thiamine-deprived diet (Trophic Animal Feed High-tech Co., Ltd., China). Control mice (n = 3 for each strain) were fed the general diet. Twenty-eight days later, all mice received PET/CT scanning.
The animals were anesthetized by inhaling 1.5–2% of isoflurane in air (1.5 L/min) and received CT scan for acquiring structure image and attenuation correction data. […] Brain PET imaging was immediately performed and dynamically acquired for 90 min with an energy window of 350–650 KeV and a time window of 3.438 ns. […] Dynamic images were reconstructed by OSEM3D/SP-MAP algorithm with two iterations. After scanning, the mice were sacrificed.

Row | Compound | SUV in the brains of mice [1] | SUVs in the brains [2]
1 | OC[C@H]1OC(O)[C@H]([18F])[C@@H](O)[C@@H]1O (some centres unmarked) [FDG, [^18F]-fluorodeoxyglucose] | 1–2 | –
2 | ^18F-deoxy-thiamine | – | less than 0.4

Reference: publication PMC7575681 (EJNMMI Research, 2020)
